Measurements taken from PMC11277476, “Synthesis and Biological Evaluation of Novel 2-Aroyl Benzofuran-Based Hydroxamic Acids as Antimicrotubule Agents” (International Journal of Molecular Sciences, 2024).
Like-named read-outs stand apart in the source and are kept apart here.

What was measured:
[1] = test system: HT-29 cells; test: In vitro growth inhibition (resazurin, 72 h), HT-29; assay type: cell-based; conditions: Homo sapiens, mean ± SE
[2] = test system: HeLa cells; test: In vitro growth inhibition (resazurin, 72 h), HeLa; assay type: cell-based; conditions: Homo sapiens, concentration inhibiting tumor cell proliferation by 50%, mean ± SE
[3] = test system: MDA-MB-231 cells; test: In vitro growth inhibition (resazurin, 72 h), MDA-MB-231; assay type: cell-based; conditions: Homo sapiens, mean ± SE
[4] = test system: A549 cells; test: In vitro growth inhibition (resazurin, 72 h), A549; assay type: cell-based; conditions: Homo sapiens, mean ± SE
[5] = test system: bovine brain tubulin; test: Inhibition of tubulin polymerization (turbidimetric); assay type: biochemical; conditions: tubulin at 10 μM; 20 min incubation at 30 °C; read-out: Tubulin Assembly IC50 ± SD
Experimental: (§1) Bovine brain tubulin was purified as described previously. To evaluate the effects of the compounds on tubulin assembly in vitro [77], varying concentrations were preincubated with 10 μM tubulin in 0.8 M monosodium glutamate (pH 6.6) at 30 °C, and the reaction mixtures were then cooled to 0 °C. After addition of GTP, the mixtures were transferred to 0 °C cuvettes in Beckman Coulter (Brea, CA, USA) DU-7400/DU-7500 recording spectrophotometers equipped with electronic temperature controllers and were warmed to 30 °C, and the assembly of tubulin was observed turbidimetrically. […] Inhibition of colchicine binding to tubulin was measured as described before, except that the reaction mixtures contained 0.5 μM tubulin and 5 μM each of [^3H]colchicine and test compound. Only one DEAE-cellulose filter was used per sample, and filtration was via gravity.

[6] = test system: MCF-7 cells; test: In vitro growth inhibition (resazurin, 72 h), MCF-7; assay type: cell-based; conditions: Homo sapiens, MCF7, mean ± SE
[7] = test system: tubulin (colchicine site); test: Inhibition of [3H]colchicine binding to tubulin; design: species or system bovine; conditions: tubulin 0.5 µM, [3H]colchicine 5 µM, tested compound 5 µM
Experimental: as §1

[8] = target: T1, human recombinant HDAC6 (Homo sapiens, UniProt Q9UBN7); test: HDAC isoform inhibition, fluorogenic substrate, HDAC6; assay type: biochemical; conditions: mean ± SE; for IC50: read-out: IC50 (µM) hHDAC6
T1 construct: purchased BPS Bioscience 50056
T1 sequence (Q9UBN7 1-1215): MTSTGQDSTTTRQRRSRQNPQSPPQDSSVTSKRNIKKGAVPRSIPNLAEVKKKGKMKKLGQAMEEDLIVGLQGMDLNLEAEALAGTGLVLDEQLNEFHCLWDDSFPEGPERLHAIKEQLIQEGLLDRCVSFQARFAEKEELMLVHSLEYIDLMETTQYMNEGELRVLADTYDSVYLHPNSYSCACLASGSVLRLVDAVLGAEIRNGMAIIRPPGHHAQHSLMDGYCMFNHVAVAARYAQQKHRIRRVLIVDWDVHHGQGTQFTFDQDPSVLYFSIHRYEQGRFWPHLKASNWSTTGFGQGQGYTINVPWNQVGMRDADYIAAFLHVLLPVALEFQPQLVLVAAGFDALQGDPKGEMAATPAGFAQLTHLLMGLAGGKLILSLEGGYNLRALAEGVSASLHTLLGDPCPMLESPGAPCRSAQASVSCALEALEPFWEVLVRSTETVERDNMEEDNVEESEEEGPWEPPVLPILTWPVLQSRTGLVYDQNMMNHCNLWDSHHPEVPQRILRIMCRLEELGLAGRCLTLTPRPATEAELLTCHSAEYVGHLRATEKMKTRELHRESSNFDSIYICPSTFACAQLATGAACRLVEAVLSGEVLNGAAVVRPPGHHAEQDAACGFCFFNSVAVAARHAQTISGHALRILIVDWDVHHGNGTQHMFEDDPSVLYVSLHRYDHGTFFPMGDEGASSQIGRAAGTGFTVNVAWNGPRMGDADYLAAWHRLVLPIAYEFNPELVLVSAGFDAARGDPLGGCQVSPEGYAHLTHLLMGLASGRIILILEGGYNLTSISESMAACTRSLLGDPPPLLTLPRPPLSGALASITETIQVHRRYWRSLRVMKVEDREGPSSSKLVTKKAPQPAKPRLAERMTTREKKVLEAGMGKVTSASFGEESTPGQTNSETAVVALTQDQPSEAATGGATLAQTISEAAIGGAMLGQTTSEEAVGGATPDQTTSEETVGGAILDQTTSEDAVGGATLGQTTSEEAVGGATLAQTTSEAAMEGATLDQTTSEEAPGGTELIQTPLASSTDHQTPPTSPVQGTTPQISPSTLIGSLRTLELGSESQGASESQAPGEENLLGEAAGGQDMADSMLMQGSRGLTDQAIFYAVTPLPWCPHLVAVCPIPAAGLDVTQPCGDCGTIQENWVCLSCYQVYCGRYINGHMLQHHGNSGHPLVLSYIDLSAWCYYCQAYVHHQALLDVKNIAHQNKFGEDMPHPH
Experimental: Further experiments were also carried out to evaluate the inhibitory activities of test compounds on selected HDAC isoforms. […] Following an incubation of 15 min at RT, fluorescence was measured in an EnSight multimodal plate reader (PerkinElmer, Boston, MA, USA) with an excitation wavelength of 360 nm and an emission wavelength of 450 nm.

[9] = test system: panel of five human cancer cell lines (HeLa, MDA-MB-231, A549, HT-29, MCF-7); test: In vitro growth inhibition, range over the panel of five cancer cell lines
Experimental: All the cell lines were purchased from the American Type Culture Collection (ATCC, Manassas, VA, USA). Drug stock solutions were prepared for each compound by dissolving them in DMSO at 10 mM.
Cancer cells were seeded in tissue treated, flat bottom, 384-well plates (Corning, Corning, NY, USA) according to their optimal density, in 27 μL of complete medium per well, using a Microlab STAR 96-CORE liquid handling system (Hamilton Bonaduz, Bonaduz, Switzerland) as described previously [75]. Each compound was tested in a 6-points 2-fold dose–response curve, and each dose was tested in duplicate within each plate, in three independent experiments. The final concentration of DMSO in the wells never exceeded 0.1%, which was the maximum concentration.
Only plates with acceptable Z-prime quality metrics (Z′ > 0.6) were further analyzed for the drug screening. Raw data were normalized according to the following equation: cell viability (%) = (x − POS)/(NEG − POS) × 100, where x is the relative fluorescence units (RFU) collected from each single well, NEG is the mean of intraplate negative controls (DMSO, corresponding to 100% cell viability), and POS is the mean of intraplate positive controls (Bortezomib 1 μΜ, equal to 0% cell viability).

[10] = test system: HT-29 cells; test: Cell cycle analysis (PI, flow cytometry); assay type: cell-based, human; conditions: 250 nM for 24 h (figure legend)
Experimental: HT29 cells were treated with the indicated compounds for 24 h and then harvested and fixed in 70% ice-cold ethanol for 24 h. The cells were next treated with a 0.1% v/v solution of Triton X-100 in phosphate buffered saline (PBS) containing 10 μg/mL RNAse A and 20 μg/mL PI. The cells were incubated at room temperature for 30 min and then analyzed on a BD FACS Celesta^TM Flow Cytometer (BD Bioscience, Franklin Lakes, NJ, USA) in the FL3 channel. DNA histograms were analyzed using FlowJo_v10.7.1 software (BD Bioscience, Franklin Lakes, NJ, USA).

[11] = test system: HT-29 cells; test: Annexin V-PI flow cytometric analysis of apoptosis, HT-29; assay type: cell-based, human; conditions: 96 h
Experimental: The quantification of apoptosis induced by the test compounds was carried out with flow cytometric analysis using the Annexin-V Fluos kit (Roche Diagnostics, Milan, Italy) following the manufacturer’s instructions. Cancer cells treated with the test compounds for the indicated time points and concentrations were then labeled with annexin V/FITC and PI and analyzed with BD FACS Celesta^TM Flow Cytometer (BD Bioscience, Franklin Lakes, NJ, USA) using the FL1 and FL3 channel, respectively, and FlowJo_v10.7.1 software.

[12] = read-out: IC50 values, range or bound over the cancer cell line panel

melting point [°C] | IC50 [1] [nM] | IC50 [2] [nM] | IC50 [3] [nM] | IC50 [4] [nM] | IC50 [5] [nM] | IC50 [6] [nM] | Colchicine Binding % Inhibition ± SD [7] [%] | IC50 [8] [µM] | IC50 [9, 12] [nM] | Structure (SMILES) | IC50 ([9]; read-out: IC50 values, range over the cancer cell line panel) [nM] | IC50 (µM) hHDAC6 [8] | Percentage of HT-29 cells in G1 phase [10] [%] | Percentage of HT-29 cells in G2/M phase [10] [%] | Percentage of HT-29 cells in S phase [10] [%] | induction of apoptosis / cell death (annexin V/PI), in words [11]
205 to 206 | 1.58 ± 0.06 | 15.2 ± 0.02 | 101 ± 0.03 | 206 ± 2.92 | – | – | – | – | – | COc1cc2oc(C(=O)c3ccccc3)c(C)c2cc1C#CC(=O)NO [Compound 11g, 3-(2-Benzoyl-6-methoxy-3-methyl-benzofuran-5-yl)prop-2yne hydroxamic acid] | – | – | – | – | – | –
168 to 170 | 881 ± 8.23 | 47.6 ± 1.22 | 322 ± 12.4 | 222 ± 1.09 | 1700 ± 100 | 59 ± 10 | 27 ± 4 | 12.6 ± 0.8 | – | COc1ccc(C(=O)c2oc3cc(OC)c(/C=C/C(=O)NO)cc3c2C)cc1 [Compound 6d, (E)-N-Hydroxy-3-(6-methoxy-2-(4-methoxybenzoyl)-3-methylbenzofuran-5-yl)acrylamide] | – | – | – | – | – | –
198 to 199 | 401 ± 2.03 | 36.8 ± 4.13 | 72.6 ± 5.03 | 187 ± 1.02 | 1100 ± 200 | 40 ± 4 | 41 ± 5 | > 30 | – | COc1cc2oc(C(=O)c3ccc(OC)c(OC)c3)c(C)c2cc1/C=C/C(=O)NO [Compound 6b, (E)-3-(2-(3,4-Dimethoxybenzoyl)-6-methoxy-3-methylbenzofuran-5-yl)-N-hydroxyacrylamide] | – | – | – | – | – | –
222 to 224 | > 10000 | 1.43 ± 0.67 | 4.09 ± 0.06 | 5.07 ± 0.22 | – | – | – | – | 1500 to 10000 | COc1ccc(C(=O)c2oc3cc(OC)c(C#CC(=O)NO)cc3c2C)cc1 [Compound 11d, N-Hydroxy-3-[6-methoxy-2-(4-methoxybenzoyl)-3-methyl-1-benzofuran-5-yl]prop-2-ynamide] | – | – | – | – | – | –
254 to 256 | > 10000 | > 10000 | > 10000 | > 10000 | – | > 10000 | – | – | > 10000 | COc1cc(C(=O)c2oc3ccc(C#CC(=O)NO)cc3c2C)cc(OC)c1OC [Compound 11h, 3-[3-Methyl-2-(3,4,5-trimethoxybenzoyl)benzofuran-5-yl]prop-2-yne hydroxamic acid] | – | – | – | – | – | –
– | – | – | – | – | – | – | – | – | – | CC(/C=C/C(=O)NO)=C\[C@@H](C)C(=O)c1ccc(N(C)C)cc1 [TSA, Trichostatin, reference compound] | – | – | 43.90 | 38.65 | 17.44 | sensitive only to the higher dose
243 to 245 | 4568 ± 21.4 | 60.5 ± 2.26 | 345 ± 4.03 | 276 ± 6.74 | 5400 ± 100 | 240 ± 10 | 20 ± 2 | – | – | COc1cc2oc(C(=O)c3ccccc3OC)c(C)c2cc1C#CC(=O)NO [Compound 11f, N-Hydroxy-3-[6-methoxy-2-(2-methoxybenzoyl)-3-methyl-1-benzofuran-5-yl]prop-2-ynamide] | – | – | – | – | – | –
276 to 277 | 2.16 ± 0.86 | 69.4 ± 1.45 | 377 ± 1.09 | 972 ± 7.47 | 2700 ± 70 | > 10000 | 30 ± 2 | – | – | COc1cc2oc(C(=O)c3ccc(OC)c(OC)c3)c(C)c2cc1C#CC(=O)NO [Compound 11b, 3-[2-(3,4-Dimethoxybenzoyl)-6-methoxy-3-methyl-1-benzofuran-5-yl]-N-hydroxyprop-2-ynamide] | – | – | – | – | – | –
248 to 250 | 96.5 ± 2.45 | 7.3 ± 0.03 | 43.9 ± 3 | 45.3 ± 2.93 | 560 ± 60 | 20 ± 0.7 | 82 ± 1 | 13.8 ± 0.8 | – | COc1cc(OC)cc(C(=O)c2oc3cc(OC)c(C#CC(=O)NO)cc3c2C)c1 [Compound 11c, 3-[2-(3,5-Dimethoxybenzoyl)-6-methoxy-3-methyl-1-benzofuran-5-yl]-N-hydroxyprop-2-ynamide] | – | – | – | – | – | –
188 to 190 | > 10000 | > 10000 | > 10000 | > 10000 | – | > 10000 | – | – | > 10000 | COc1cc(C(=O)c2oc3ccc(/C=C/C(=O)NO)cc3c2C)cc(OC)c1OC [Compound 6h, (E)-N-Hydroxy-3-(3-methyl-2-(3,4,5-trimethoxybenzoyl)benzofuran-5-yl)acrylamide] | – | – | – | – | – | –

Structure (SMILES) | melting point [°C] | IC50 [1] [nM] | IC50 [2] [nM] | IC50 [3] [nM] | IC50 [4] [nM] | IC50 [5] [nM] | IC50 [6] [nM] | Colchicine Binding % Inhibition ± SD [7] [%] | IC50 [8] [µM] | IC50 [9, 12] [nM] | IC50 ([9]; read-out: IC50 values, range over the cancer cell line panel) [nM] | IC50 (µM) hHDAC6 [8] | Percentage of HT-29 cells in G1 phase [10] [%] | Percentage of HT-29 cells in G2/M phase [10] [%] | Percentage of HT-29 cells in S phase [10] [%] | induction of apoptosis / cell death (annexin V/PI), in words [11]
C#Cc1cc2c(C)c(C(=O)c3cc(OC)c(OC)c(OC)c3)oc2cc1OC [Compound 8, (5-ethynyl-6-methoxy-3-methyl-benzofuran-2-yl)-(3,4,5-trimethoxyphenyl)methanone] | 186 to 188 | 207 ± 14 | 18.2 ± 0.02 | 81.2 ± 6 | 122 ± 8.6 | – | – | – | – | – | 18 to 207 | – | – | – | – | –
COc1cccc(C(=O)c2oc3cc(OC)c(C#CC(=O)NO)cc3c2C)c1 [Compound 11e, N-Hydroxy-3-[6-methoxy-2-(3-methoxybenzoyl)-3-methyl-1-benzofuran-5-yl]prop-2-ynamide] | – | 4.89 ± 0.03 | 8.4 ± 0.98 | 96.7 ± 1.65 | 94.4 ± 3.03 | 420 ± 30 | 15 | 81 ± 3 | > 30 | – | – | does not show any activity at the highest concentration tested | – | – | – | –
